Source: article PMC4476799, “Englerin A Agonizes the TRPC4/C5 Cation Channels to Inhibit Tumor Cell Line Proliferation” (PLoS ONE, 2015)
Where two headings read alike, the source gives them in different places.

Test system: cancer cell lines from the cancer cell line encyclopedia (CCLE)
Assay: Cell line profiling (CLiP) proliferation experiment
Assay type: cell-based
Set-up: ACTIVITY_AREA: scale not given here; AMAX: unit not given here
Conditions: for IC50: read-out: Crossing Point; for EC50: read-out: Inflection Point
Protocol: Compound profiling experiment and data analysis was performed as previously described. Data was imported and plotted using the Tibco Spotfire DXP application. Lines were categorized as sensitive, intermediate and refractory as follows: Amax<-40 & Inflection Point <2 ~ Sensitive, Amax>-20 & Inflection Point >10 ~ Refractory, all else were called Intermediate. Cancer Cell line HG-U133 Plus 2 data was processed and normalized as described. […] Five sets of refractory cell lines were generated from the pool of refractory cell lines trying to match the lineage composition of the set of sensitive cell lines. The limma package was used as previously described to perform the statistical comparison.

[1] = Homo sapiens, ZR-75-30, ZR-75-30 cell line, breast, ductal_carcinoma
[2] = KYO1, KYO-1 (haematopoietic_and_lymphoid_tissue)
[3] = LP-1 (haematopoietic_and_lymphoid_tissue)
[4] = Loucy (haematopoietic_and_lymphoid_tissue)
[5] = MOLM16, cell line MOLM-16 (haematopoietic_and_lymphoid_tissue)
[6] = NCI-H1869, lung, squamous_cell_carcinoma
[7] = NCI-H2073, NCI-H2073, lung, adenocarcinoma
[8] = OCI-M1, OCI-M1, haematopoietic_and_lymphoid_tissue, acute_myeloid_leukaemia
[9] = PaTuÂ 8988s, cell line PA-TU-8988S
[10] = SH-10-TC, cell line SH-10-TC, stomach
[11] = SNU878, cell line SNU-878, liver, hepatocellular_carcinoma
[12] = SUP-M2, SUP-M2 (haematopoietic_and_lymphoid_tissue, anaplastic_large_cell_lymphoma)
[13] = T24 (urinary_tract, transitional_cell_carcinoma)
[14] = T84 (large_intestine, adenocarcinoma)
[15] = TE-1 (oesophagus, squamous_cell_carcinoma)
[16] = TEN (endometrium, clear_cell_carcinoma)
[17] = TT2609-C02 (thyroid, follicular_carcinoma)
[18] = U266B1 (haematopoietic_and_lymphoid_tissue, plasma_cell_myeloma)

CC(C)[C@@]12C[C@@H](O)[C@@](C)(O1)[C@@H]1CC[C@@H](C)[C@H]1[C@@H]2OC(=O)/C=C/c1ccccc1 [Englerin B]
IC50 [1]: > 30 µM
EC50 [1]: 29.7 µM
IC50 (Hs766T, cell line Hs 766T, pancreas): > 30 µM
IC50 (Hs766T, cell line Hs 766T): > 30 µM
IC50 (Hs 940.T cells): > 30 µM
IC50 (IGR-39, cell line IGR-39, skin): > 30 µM
IC50 (IGR-39, cell line IGR-39): > 30 µM
IC50 (JHH7, JHH-7): 13.7 µM
IC50 (JHH-2, JHH-2): > 30 µM
IC50 (JHH-2, cell line JHH-2): > 30 µM
IC50 (JHH-5): 12.4 µM
IC50 (JHOM-1): 28.8 µM
EC50 (JHOM-1): 28.8 µM
IC50 (JHUEM-2): 15.2 µM
IC50 (JHUEM-2 cells): 15.2 µM
IC50 (K029AX (skin)): > 30 µM
IC50 (K029AX): > 30 µM
EC50 (K029AX): 26.4 µM
IC50 (KASUMI-2): 15.8 µM
EC50 (KASUMI-2): 10.6 µM
IC50 (KASUMI-2 cells): 15.8 µM
EC50 (KASUMI-2 cells): 10.6 µM
EC50 (KHM-1B, KHM-1B cells): 17.2 µM
IC50 (KHM-1B): 19.5 µM
EC50 (KHM-1B): 17.2 µM
IC50 (KMM-1, KMM-1): 15.7 µM
IC50 (KMRC-1, KMRC-1): > 30 µM
IC50 (KMRC-1, KMRC-1 cells): > 30 µM
IC50 (KMRC-2): > 30 µM
IC50 (KMRC-2 cells): > 30 µM
IC50 (KMRC-20): > 30 µM
EC50 (KMRC-20): 0.14 µM
IC50 (KMRC-20 cells): > 30 µM
EC50 (KMRC-20 cells): 0.14 µM
IC50 (KMS-26, KMS-26): 15.5 µM
EC50 (KMS-26, KMS-26): 16.6 µM
EC50 (KMS-26, KMS-26 cells): 16.6 µM
IC50 (KMS-27, KMS-27): 28.4 µM
EC50 (KMS-27, KMS-27): 28.4 µM
IC50 (KMS-27, KMS-27 cells): 28.4 µM
EC50 (KMS-27, KMS-27 cells): 28.4 µM
IC50 (KMS-28BM): 29.2 µM
IC50 (KMS-34, KMS-34): 27.9 µM
IC50 (KO52): 27 µM
IC50 (KP-1NL (pancreas)): > 30 µM
IC50 (KP-1NL): > 30 µM
IC50 (KP-N-SI9s): 21.7 µM
EC50 (KP-N-SI9s): 23.1 µM
IC50 (KP-N-YN (autonomic_ganglia)): > 30 µM
IC50 (KP-N-YN): > 30 µM
IC50 (KPL-1, KPL-1): 19.9 µM
IC50 (KS-1): 28.3 µM
IC50 (KURAMOCHI (ovary)): 20.7 µM
EC50 (KURAMOCHI (ovary)): 16.1 µM
IC50 (KYM-1 (soft_tissue)): 12.7 µM
IC50 [2]: 19.7 µM
EC50 [2]: 12.1 µM
EC50 (KYO1, KYO-1 cells): 12.1 µM
IC50 (Karpas-620, KARPAS-620): 17.6 µM
EC50 (Karpas-620, KARPAS-620): 17.6 µM
IC50 (Kelly): 15.4 µM
EC50 (Kelly): 16 µM
IC50 (Ki-JK (haematopoietic_and_lymphoid_tissue)): 14.5 µM
IC50 (Ki-JK): 14.5 µM
EC50 (Ki-JK): 14.1 µM
IC50 (L3.3 (pancreas)): > 30 µM
IC50 (LC-1/sq-SF (lung)): > 30 µM
EC50 (LC-1/sq-SF (lung)): 22.8 µM
IC50 (LK-2 (lung)): > 30 µM
IC50 (LMSU (stomach)): 20 µM
IC50 [3]: 18.7 µM
EC50 [3]: 18.7 µM
IC50 (LP-6 (soft_tissue)): > 30 µM
IC50 (Li-7 (liver)): > 30 µM
IC50 [4]: 13.6 µM
EC50 [4]: 12.2 µM
IC50 (MB 157 (breast)): > 30 µM
EC50 (MB 157 (breast)): 14.7 µM
IC50 (MCAS (ovary)): > 30 µM
IC50 (MDST8, MDST8 (large_intestine)): > 30 µM
IC50 [5]: 15.3 µM
EC50 [5]: 15.3 µM
IC50 (Mel202, cell line Mel202 (eye)): > 30 µM
EC50 (Mel202, cell line Mel202 (eye)): 20.6 µM
IC50 (Mel202, cell line Mel202): > 30 µM
IC50 (Mono-Mac-1, cell line MONO-MAC-1 (haematopoietic_and_lymphoid_tissue)): 21.4 µM
IC50 (NCI-H196, NCI-H196, lung, small_cell_carcinoma): > 30 µM
IC50 (NCI-H196, cell line NCI-H196): > 30 µM
IC50 (NCI-H841, NCI-H841, lung, small_cell_carcinoma): 17.1 µM
IC50 (NCI-H1568, cell line NCI-H1568 (lung)): 6.63 µM
IC50 (NCI-H1781, cell line NCI-H1781 (lung)): 11.2 µM
IC50 [6]: > 30 µM
EC50 [6]: 2.95 µM
IC50 (NCI-H1869 cells): > 30 µM
EC50 (NCI-H1869 cells): 2.95 µM
IC50 (NCI-H2023, NCI-H2023, lung, adenocarcinoma): 13.3 µM
IC50 [7]: 24 µM
EC50 [7]: 20.3 µM
IC50 (NCI-H2106, lung, non_small_cell_carcinoma): > 30 µM
IC50 (NCI-H2172, NCI-H2172, lung, non_small_cell_carcinoma): 24.8 µM
IC50 (NCI-H2330, lung, small_cell_carcinoma): > 30 µM
IC50 (OC 316, ovary, adenocarcinoma): > 30 µM
IC50 [8]: 13.5 µM
EC50 [8]: 11.8 µM
EC50 (OCI-M1, OCI-M1 cells): 11.8 µM
IC50 (OMM2.3 (eye)): > 30 µM
IC50 (OMM2.5 cells): > 30 µM
IC50 (ONCO-DG-1, cell line ONCO-DG-1): 3.52 µM
EC50 (OUMS-23, OUMS-23 cells): 17.7 µM
IC50 (OUMS-23, cell line OUMS-23): 14.8 µM
EC50 (OUMS-23, cell line OUMS-23): 17.7 µM
IC50 (OV7, OV7 cells): > 30 µM
IC50 (OV56, OV56 cells): > 30 µM
IC50 (OV56, cell line OV56): > 30 µM
EC50 (PL-21, PL-21 cells): 26.2 µM
IC50 (PL-21, cell line PL-21): 21 µM
EC50 (PL-21, cell line PL-21): 26.2 µM
IC50 [9]: 23.3 µM
EC50 [9]: 23.3 µM
IC50 (RCC10RGB cells): > 30 µM
EC50 (RCH-ACV cells): 12.1 µM
IC50 (RERF-LC-AI cells): > 30 µM
EC50 (RERF-LC-AI cells): 17.9 µM
IC50 (RKN (soft_tissue)): > 30 µM
EC50 (RKO (large_intestine)): 13.1 µM
IC50 (RMUG-S (ovary)): > 30 µM
IC50 (Ri-1, RI-1 cells): 9.99 µM
EC50 (Ri-1, RI-1 cells): 9.99 µM
IC50 (SH-4 (skin)): > 30 µM
IC50 (SH-10-TC, SH-10-TC (stomach)): > 30 µM
IC50 [10]: > 30 µM
EC50 [10]: 11.1 µM
IC50 (SNG-M (endometrium)): > 30 µM
IC50 [11]: 27.3 µM
EC50 [11]: 27.3 µM
IC50 (SNU-119 (ovary)): > 30 µM
IC50 (SNU-216, SNU-216 (stomach)): > 30 µM
IC50 (SNU-216, cell line SNU-216, stomach): > 30 µM
IC50 (SNU-738 (central_nervous_system)): > 30 µM
IC50 (SNU-C5 (large_intestine)): > 30 µM
IC50 (SNU-C5 (large_intestine, adenocarcinoma)): > 30 µM
IC50 (SR-786, SR-786 (haematopoietic_and_lymphoid_tissue)): > 30 µM
IC50 (SR-786, SR-786 (haematopoietic_and_lymphoid_tissue, anaplastic_large_cell_lymphoma)): > 30 µM
IC50 (SUM52, SUM-52 (breast)): > 30 µM
IC50 (SUM52, SUM-52 (breast, NS)): > 30 µM
IC50 (SUM52PE, SUM52PE (breast)): > 30 µM
IC50 (SUM52PE, SUM52PE (breast, NS)): > 30 µM
IC50 [12]: 18.2 µM
EC50 [12]: 18.2 µM
IC50 (SUP-M2, SUP-M2 cells): 18.2 µM
EC50 (SUP-M2, SUP-M2 cells): 18.2 µM
IC50 (SW1271, SW 1271 (lung)): > 30 µM
IC50 (SW1271, SW 1271 (lung, small_cell_carcinoma)): > 30 µM
IC50 (T24 (urinary_tract)): > 30 µM
IC50 [13]: > 30 µM
EC50 [13]: 5 µM
IC50 [14]: 28.3 µM
EC50 [14]: 9.52 µM
IC50 (T778 (soft_tissue)): > 30 µM
IC50 (T778 (soft_tissue, well_differentiated)): > 30 µM
IC50 (TC-71, TC-71 (bone, NS)): 25.2 µM
IC50 (TE 617.T (soft_tissue, NS)): 16.5 µM
EC50 (TE 617.T (soft_tissue, NS)): 11.9 µM
EC50 (TE 617.T cells): 11.9 µM
IC50 [15]: 18.9 µM
EC50 [15]: 16.5 µM
IC50 (TE-5 (oesophagus, squamous_cell_carcinoma)): 29.6 µM
IC50 (TE-6 (oesophagus, squamous_cell_carcinoma)): 23.8 µM
IC50 (TEN (endometrium)): > 30 µM
IC50 [16]: > 30 µM
EC50 [16]: 13.1 µM
IC50 (TF-1 (haematopoietic_and_lymphoid_tissue, acute_myeloid_leukaemia)): 16.7 µM
IC50 [17]: 22.3 µM
EC50 [17]: 14.6 µM
EC50 (TT2609-C02 cells): 14.6 µM
IC50 (U266B1 (haematopoietic_and_lymphoid_tissue)): > 30 µM
IC50 [18]: > 30 µM
EC50 [18]: 16 µM
ACTIVITY_AREA (UACC-62 cell line, skin, NS): 41.15
AMAX (UACC-62 cell line, skin, NS): -44.29
RESPONSE (UACC-62 cell line, skin, NS): INTERMEDIATE
ACTIVITY_AREA (UACC-257 (skin, NS)): 31.33
AMAX (UACC-257 (skin, NS)): -80.26
RESPONSE (UACC-257 (skin, NS)): INTERMEDIATE
